Source: ChEMBL document CHEMBL4406914, “Impact of Minor Structural Modifications on Properties of a Series of mTOR Inhibitors” (ACS Med Chem Lett, 2019)
Values after ≈ are worked out from the molar mass of the structure shown. Active and inactive are the calls of the source. The rule behind the calls is not given here.

Assays:
[1] = Hepatic intrinsic clearance in human Hepatocytes assessed per at 1 uM measured upto 90 mins by LC-MS/MS analysis; type: ADME, cell-based, Hepatocyte; conditions: 1.5 h
[2] = Kinetic aqueous solubility of compound in phosphate buffer at pH 7.4 at 100 uM at 20 degree C shaken for 24 hrs by HPLC analysis; type: physicochemical; conditions: read-out: Kinetic_solubility
[3] = molecular target: Phosphatidylinositol 4,5-bisphosphate 3-kinase catalytic subunit beta isoform (Homo sapiens) (UniProt P42338); experiment: Inhibition of wild-type human partial length PIK3CB (P118 to S1070 residues) expressed in mammalian expression system at 10 uM by Kinomescan method
mTORC1 = mTORC1 (Homo sapiens, UniProt P42345); experiment: Inhibition of mTORC1 in human A431 cells assessed as S6RP phosphorylation incubated for 3 hrs by HTRF assay; type: cell-based
[4] = molecular target: Phosphatidylinositol 4,5-bisphosphate 3-kinase catalytic subunit gamma isoform (Homo sapiens) (UniProt P48736); experiment: Inhibition of wild-type human partial length PIK3CG (S144 to A1102 residues) expressed in mammalian expression system at 10 uM by Kinomescan method
[5] = molecular target: Serine/threonine-protein kinase mTOR (Homo sapiens, UniProt P42345); experiment: Inhibition of human recombinant GST-tagged mTOR catalytic domain (1360 to 2549 residues) expressed in baculovirus expression system using GFP-4E-BP1 peptide as substrate incubated for 1 hr by LanthaScreen assay
[6] = molecular target: T1, Phosphatidylinositol 3-kinase C2 domain-containing subunit gamma (Homo sapiens) (UniProt O75747); experiment: Inhibition of wild-type human partial length PIK3C2G (M1 to I1446 residues) expressed in mammalian expression system at 10 uM by Kinomescan method
T1 sequence (whole entry): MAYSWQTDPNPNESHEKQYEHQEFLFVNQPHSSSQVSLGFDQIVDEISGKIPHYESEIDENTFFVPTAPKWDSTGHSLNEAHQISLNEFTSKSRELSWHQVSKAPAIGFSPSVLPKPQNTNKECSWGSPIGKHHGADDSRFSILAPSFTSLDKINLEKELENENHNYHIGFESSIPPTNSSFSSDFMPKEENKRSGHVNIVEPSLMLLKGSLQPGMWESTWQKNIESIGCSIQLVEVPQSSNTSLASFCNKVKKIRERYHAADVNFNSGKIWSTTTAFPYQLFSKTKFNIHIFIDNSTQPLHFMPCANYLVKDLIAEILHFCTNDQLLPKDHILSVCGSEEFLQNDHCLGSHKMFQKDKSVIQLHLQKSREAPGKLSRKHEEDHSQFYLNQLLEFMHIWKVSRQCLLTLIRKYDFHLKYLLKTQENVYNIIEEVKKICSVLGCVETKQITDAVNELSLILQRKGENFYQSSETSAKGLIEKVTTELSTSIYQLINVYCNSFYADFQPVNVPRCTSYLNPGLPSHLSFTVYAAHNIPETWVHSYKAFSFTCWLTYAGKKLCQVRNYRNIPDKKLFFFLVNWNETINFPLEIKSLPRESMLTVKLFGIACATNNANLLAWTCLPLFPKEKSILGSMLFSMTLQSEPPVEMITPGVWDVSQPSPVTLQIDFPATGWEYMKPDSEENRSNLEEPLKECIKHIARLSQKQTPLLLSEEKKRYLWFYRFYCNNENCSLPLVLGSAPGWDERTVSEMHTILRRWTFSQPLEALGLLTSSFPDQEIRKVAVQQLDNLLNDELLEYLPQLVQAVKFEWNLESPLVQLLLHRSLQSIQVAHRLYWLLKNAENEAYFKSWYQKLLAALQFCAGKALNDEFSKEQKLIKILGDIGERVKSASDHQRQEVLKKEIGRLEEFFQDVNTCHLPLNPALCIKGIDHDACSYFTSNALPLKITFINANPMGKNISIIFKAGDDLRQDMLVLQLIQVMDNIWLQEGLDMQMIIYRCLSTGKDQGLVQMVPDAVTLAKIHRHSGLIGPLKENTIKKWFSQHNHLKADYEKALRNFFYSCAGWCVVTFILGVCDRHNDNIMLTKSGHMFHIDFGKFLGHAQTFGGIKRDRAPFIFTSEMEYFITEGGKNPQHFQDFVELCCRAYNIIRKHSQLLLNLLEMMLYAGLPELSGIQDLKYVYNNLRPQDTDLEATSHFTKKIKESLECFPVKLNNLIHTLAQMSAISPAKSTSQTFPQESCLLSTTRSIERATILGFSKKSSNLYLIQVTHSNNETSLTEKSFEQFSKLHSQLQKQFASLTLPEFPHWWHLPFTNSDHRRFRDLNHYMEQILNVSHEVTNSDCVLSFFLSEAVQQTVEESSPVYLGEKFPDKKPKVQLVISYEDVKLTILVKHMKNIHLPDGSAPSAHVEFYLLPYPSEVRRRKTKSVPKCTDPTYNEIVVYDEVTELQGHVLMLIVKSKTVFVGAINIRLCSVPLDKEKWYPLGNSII

mTORC2 = mTORC2 (Homo sapiens, UniProt P42345); experiment: Inhibition of mTORC2 in human A431 cells assessed as AKT phosphorylation at S473 residue incubated for 3 hrs by HTRF assay; type: cell-based
[7] = molecular target: Phosphatidylinositol 4,5-bisphosphate 3-kinase catalytic subunit alpha isoform (Homo sapiens, UniProt P42336)
Description: Inhibition of PI3Kalpha (unknown origin) using PIP2 as substrate measured after 30 mins by TR-FRET assay

[8] = molecular target: Phosphatidylinositol 4-phosphate 3-kinase C2 domain-containing subunit beta (Homo sapiens) (UniProt O00750); experiment: Inhibition of wild-type human partial length PIK3C2B (M1 to L1634 residues) expressed in mammalian expression system at 10 uM by Kinomescan method
[9] = molecular target: T2, Phosphatidylinositol 4,5-bisphosphate 3-kinase catalytic subunit delta isoform (Homo sapiens) (UniProt O00329); experiment: Inhibition of wild-type human partial length PIK3CD (R108 to Q1044 residues) expressed in mammalian expression system at 10 uM by Kinomescan method
T2 sequence (whole entry): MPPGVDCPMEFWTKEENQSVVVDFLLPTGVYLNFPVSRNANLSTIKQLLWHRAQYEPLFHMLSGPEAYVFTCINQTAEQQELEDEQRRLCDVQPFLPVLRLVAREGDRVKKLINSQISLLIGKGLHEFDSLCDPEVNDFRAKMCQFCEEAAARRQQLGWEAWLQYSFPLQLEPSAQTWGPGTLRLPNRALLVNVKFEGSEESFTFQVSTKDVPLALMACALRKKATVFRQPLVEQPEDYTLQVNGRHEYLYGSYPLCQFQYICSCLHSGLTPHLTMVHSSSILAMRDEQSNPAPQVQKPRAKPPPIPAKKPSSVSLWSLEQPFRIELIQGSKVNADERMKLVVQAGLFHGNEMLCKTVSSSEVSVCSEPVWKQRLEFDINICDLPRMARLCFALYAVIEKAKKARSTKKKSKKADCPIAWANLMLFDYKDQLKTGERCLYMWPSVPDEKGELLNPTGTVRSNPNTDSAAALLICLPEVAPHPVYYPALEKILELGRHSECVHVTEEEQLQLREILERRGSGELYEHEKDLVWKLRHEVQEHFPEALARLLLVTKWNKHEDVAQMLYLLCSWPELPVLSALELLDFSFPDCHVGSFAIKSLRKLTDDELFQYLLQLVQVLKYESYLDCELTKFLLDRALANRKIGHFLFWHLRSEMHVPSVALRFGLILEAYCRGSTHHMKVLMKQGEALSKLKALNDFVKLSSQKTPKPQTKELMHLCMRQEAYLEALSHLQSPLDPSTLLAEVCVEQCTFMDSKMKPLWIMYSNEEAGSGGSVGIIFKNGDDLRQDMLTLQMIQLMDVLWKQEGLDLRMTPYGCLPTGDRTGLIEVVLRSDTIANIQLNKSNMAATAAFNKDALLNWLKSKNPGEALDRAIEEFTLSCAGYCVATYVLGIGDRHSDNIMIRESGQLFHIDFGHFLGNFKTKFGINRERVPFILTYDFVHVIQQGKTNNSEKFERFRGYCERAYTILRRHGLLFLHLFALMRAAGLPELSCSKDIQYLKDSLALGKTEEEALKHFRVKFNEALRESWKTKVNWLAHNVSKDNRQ

[10] = Metabolic stability in human liver microsomes assessed as parent compound remaining at 1 uM measured at 15 mins in presence of phase 1 metabolism cofactors by LC-MS/MS analysis; type: ADME, Microsome; conditions: read-out: Stability
[11] = Lipophilicity, ChromlogD of compound at 0.5 mM at pH 6.5 by UPLC-UV analysis; conditions: buffer, pH 6.5, 500 µM

Phosphatidylinositol 4,5-bisphosphate 3-kinase catalytic subunit beta isoform (Homo sapiens), sequence (P42338 whole entry, looked up, the tested form may be a part, canonical isoform): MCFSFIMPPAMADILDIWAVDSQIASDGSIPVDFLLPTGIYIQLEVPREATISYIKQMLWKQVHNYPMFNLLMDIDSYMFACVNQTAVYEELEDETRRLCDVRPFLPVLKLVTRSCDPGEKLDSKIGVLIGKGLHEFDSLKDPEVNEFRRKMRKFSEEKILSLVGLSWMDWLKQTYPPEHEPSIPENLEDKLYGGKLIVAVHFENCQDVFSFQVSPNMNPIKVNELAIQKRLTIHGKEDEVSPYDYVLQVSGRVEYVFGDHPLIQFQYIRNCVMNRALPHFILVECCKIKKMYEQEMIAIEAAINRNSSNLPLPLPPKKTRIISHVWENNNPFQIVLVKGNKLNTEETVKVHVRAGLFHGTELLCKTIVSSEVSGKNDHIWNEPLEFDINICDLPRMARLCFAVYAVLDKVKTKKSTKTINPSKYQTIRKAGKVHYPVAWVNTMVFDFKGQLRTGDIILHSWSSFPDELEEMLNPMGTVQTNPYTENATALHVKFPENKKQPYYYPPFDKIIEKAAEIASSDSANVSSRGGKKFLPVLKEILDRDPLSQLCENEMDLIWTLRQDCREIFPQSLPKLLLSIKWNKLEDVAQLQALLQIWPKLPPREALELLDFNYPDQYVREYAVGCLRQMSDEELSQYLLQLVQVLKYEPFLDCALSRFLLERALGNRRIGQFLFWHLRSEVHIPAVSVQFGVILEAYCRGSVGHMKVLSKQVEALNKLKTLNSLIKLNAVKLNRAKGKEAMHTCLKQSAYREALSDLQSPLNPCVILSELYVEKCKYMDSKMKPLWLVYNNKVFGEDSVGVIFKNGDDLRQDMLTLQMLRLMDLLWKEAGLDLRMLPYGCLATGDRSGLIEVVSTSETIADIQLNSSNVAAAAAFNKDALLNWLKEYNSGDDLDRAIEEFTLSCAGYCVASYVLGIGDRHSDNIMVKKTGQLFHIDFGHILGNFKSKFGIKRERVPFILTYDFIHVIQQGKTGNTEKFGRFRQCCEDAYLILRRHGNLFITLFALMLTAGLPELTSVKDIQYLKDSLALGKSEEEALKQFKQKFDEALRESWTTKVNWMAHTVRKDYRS
Phosphatidylinositol 4-phosphate 3-kinase C2 domain-containing subunit beta (Homo sapiens), sequence (O00750 whole entry, the tested form may be a part, canonical isoform): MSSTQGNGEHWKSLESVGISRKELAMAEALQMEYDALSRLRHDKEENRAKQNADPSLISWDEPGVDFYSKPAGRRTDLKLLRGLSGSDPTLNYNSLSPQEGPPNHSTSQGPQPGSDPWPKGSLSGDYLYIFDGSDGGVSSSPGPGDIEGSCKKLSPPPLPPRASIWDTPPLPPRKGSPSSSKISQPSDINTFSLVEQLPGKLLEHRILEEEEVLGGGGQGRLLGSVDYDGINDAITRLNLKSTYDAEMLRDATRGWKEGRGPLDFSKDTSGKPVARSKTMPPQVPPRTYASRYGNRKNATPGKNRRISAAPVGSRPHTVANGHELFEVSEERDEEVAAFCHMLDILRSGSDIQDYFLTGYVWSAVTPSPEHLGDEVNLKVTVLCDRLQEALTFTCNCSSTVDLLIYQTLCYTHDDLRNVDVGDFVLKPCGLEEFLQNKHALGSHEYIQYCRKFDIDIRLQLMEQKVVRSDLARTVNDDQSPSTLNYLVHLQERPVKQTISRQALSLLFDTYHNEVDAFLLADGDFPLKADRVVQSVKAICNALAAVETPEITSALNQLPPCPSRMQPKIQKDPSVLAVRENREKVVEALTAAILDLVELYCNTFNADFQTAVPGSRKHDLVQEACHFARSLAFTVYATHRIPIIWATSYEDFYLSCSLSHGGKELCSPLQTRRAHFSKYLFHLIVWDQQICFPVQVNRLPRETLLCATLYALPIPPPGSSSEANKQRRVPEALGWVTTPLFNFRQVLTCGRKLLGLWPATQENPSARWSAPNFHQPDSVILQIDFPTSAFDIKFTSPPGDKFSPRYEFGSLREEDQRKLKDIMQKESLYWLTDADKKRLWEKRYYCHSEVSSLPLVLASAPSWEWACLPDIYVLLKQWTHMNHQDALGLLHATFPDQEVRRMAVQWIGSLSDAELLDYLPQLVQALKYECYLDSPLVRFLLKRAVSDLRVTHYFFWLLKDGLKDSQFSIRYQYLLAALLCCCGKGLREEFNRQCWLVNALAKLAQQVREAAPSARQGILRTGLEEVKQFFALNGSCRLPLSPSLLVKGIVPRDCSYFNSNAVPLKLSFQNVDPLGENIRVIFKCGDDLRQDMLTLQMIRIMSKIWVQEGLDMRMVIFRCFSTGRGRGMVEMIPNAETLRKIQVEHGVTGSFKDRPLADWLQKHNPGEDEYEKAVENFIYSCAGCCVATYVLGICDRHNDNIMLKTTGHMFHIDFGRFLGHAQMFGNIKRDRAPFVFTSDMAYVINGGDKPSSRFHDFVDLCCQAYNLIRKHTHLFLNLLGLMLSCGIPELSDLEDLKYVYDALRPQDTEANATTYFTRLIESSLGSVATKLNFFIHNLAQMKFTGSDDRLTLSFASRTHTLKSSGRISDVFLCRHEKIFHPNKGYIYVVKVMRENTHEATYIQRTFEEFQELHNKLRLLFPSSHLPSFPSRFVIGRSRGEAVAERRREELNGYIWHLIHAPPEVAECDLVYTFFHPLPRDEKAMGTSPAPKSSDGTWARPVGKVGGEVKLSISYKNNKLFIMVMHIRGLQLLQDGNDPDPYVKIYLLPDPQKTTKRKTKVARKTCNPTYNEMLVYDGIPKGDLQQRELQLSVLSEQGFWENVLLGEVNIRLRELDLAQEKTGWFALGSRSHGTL
Phosphatidylinositol 4,5-bisphosphate 3-kinase catalytic subunit alpha isoform, sequence (P42336 whole entry, the tested form may be a part, canonical isoform): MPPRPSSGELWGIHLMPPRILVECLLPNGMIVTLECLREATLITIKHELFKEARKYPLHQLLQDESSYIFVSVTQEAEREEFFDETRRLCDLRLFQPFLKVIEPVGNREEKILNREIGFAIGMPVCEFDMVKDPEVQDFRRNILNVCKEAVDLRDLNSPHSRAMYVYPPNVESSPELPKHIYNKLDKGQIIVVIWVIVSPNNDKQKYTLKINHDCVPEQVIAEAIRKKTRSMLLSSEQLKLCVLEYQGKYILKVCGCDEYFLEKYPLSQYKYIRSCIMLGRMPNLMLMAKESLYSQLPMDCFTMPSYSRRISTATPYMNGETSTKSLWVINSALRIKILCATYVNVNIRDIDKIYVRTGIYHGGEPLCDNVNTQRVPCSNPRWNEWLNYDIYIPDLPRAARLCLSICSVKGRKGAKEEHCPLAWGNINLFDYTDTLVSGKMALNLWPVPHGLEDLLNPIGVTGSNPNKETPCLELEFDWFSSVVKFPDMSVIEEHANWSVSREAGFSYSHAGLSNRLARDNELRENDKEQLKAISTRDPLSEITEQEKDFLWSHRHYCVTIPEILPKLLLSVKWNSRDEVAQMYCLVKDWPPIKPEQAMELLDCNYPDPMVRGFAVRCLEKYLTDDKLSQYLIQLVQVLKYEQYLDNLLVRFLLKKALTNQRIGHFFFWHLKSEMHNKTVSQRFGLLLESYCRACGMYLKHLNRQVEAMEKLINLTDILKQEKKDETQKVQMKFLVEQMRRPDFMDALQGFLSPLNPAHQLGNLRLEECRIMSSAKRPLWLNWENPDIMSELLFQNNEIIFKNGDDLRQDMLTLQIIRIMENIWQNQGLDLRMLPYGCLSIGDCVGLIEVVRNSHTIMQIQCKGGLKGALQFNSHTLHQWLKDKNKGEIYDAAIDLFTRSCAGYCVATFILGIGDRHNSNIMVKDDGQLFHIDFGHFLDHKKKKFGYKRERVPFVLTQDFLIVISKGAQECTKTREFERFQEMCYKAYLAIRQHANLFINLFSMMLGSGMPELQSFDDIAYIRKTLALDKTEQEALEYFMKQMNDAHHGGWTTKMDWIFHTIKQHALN
Phosphatidylinositol 4,5-bisphosphate 3-kinase catalytic subunit gamma isoform (Homo sapiens), sequence (P48736 whole entry, looked up, the tested form may be a part, canonical isoform): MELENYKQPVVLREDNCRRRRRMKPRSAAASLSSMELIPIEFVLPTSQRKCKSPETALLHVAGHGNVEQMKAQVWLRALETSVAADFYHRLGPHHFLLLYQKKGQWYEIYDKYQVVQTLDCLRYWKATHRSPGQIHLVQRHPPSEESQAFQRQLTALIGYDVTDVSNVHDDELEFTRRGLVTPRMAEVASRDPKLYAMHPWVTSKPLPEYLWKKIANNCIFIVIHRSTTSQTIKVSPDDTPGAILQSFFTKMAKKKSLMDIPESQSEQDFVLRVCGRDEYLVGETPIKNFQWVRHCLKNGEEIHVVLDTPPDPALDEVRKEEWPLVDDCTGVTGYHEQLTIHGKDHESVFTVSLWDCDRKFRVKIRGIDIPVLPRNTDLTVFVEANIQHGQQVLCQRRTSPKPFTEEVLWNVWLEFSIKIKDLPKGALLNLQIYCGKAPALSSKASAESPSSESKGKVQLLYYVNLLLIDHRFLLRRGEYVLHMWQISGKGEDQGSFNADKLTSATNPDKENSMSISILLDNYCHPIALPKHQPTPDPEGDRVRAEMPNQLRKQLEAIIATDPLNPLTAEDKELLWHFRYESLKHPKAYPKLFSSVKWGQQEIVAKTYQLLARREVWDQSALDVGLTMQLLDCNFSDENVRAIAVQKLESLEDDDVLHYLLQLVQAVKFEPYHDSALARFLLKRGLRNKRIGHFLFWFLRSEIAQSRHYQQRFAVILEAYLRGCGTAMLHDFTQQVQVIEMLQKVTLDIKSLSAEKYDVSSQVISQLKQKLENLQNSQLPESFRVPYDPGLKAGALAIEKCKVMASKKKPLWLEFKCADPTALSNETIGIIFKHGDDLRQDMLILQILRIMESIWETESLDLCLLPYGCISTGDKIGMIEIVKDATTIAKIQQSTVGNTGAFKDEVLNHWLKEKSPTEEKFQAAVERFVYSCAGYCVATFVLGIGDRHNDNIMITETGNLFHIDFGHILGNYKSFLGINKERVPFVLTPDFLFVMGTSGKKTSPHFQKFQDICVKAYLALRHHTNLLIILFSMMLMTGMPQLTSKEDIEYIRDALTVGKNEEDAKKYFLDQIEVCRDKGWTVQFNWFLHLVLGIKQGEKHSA

CC(C)n1nc(-c2ccc3oc(N)nc3c2)c2c(=O)[nH]cnc21
CLH [1]: < 5 µL/min | solubility kinetic at 24 h, 100 µM [2]: 3 µM (≈ 0.931 µg/mL) | inhibition [3]: inactive | IC50 (mTORC1): 0.03 µM | inhibition [4]: inactive | Ki [5]: 0.028 µM | inhibition [6]: inactive | IC50 (mTORC2): 0.13 µM | Ki [7]: > 10 µM | inhibition [8]: inactive | inhibition [9]: inactive | remaining at 0.25 h, 1 µM [10]: > 95% | ChromlogD6.5 [11]: 0.9
